According to patent EP0745595A1, “3-(3-Aryloxyphenyl)-1-(substituted methyl)-s-triazine-2,4,6-oxo or thiotrione herbicidal agents” (American Cyanamid Company, priority 1995, dated 1996):

Key:
Format in all cases: in vivo
[1] = tested on: ORYZA SATIVA, L. TEBONNET; test: Preemergence herbicidal evaluation, ORYSAT (Rice, Tebonnet); conditions: rated four to five weeks after treatment
Excerpt: Results of herbicide evaluation are expressed on a rating scale (0-9). The scale is based upon a visual observation of plant stand, vigor, malformation, size, chlorosis and overall plant appearance as compared with a control.
The preemergence herbicidal activity of the test compounds of the present invention is exemplified by the following tests in which the seeds of a variety of monocotyledonous and dicotyledonous plants are separately mixed with potting soil and planted on top of approximately one inch of soil in separate pint cups. […] The treated cups are then placed on greenhouse benches, watered and cared for in accordance with conventional greenhouse procedures. From four to five weeks after treatment, the tests are terminated and each cup is examined and rated according to the rating system provided in Example 40.
The compounds evaluated are reported by compound number given in Example 40.

CHENOPODIUM ALBUM, L. [2] = test: Postemergence herbicidal evaluation, CHEAL (Lambsquarters, Common)
How it was run: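 Postemergence herbicidal activity on Chenopodium album was tested by spraying two-week-old seedlings grown in jiffy flats with compound in acetone/water (50/50) plus 0.5% TWEEN®20, using a 40 psi nozzle. Four to five weeks after treatment, stand, vigor, malformation, size, chlorosis and overall appearance were scored 0-9 relative to controls, with repeat tests averaged.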

CHENOPODIUM ALBUM, L. [3] = test: Preemergence herbicidal evaluation, CHEAL (Lambsquarters, Common); conditions: rated four to five weeks after treatment
How it was run: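 Seeds mixed with potting soil were planted on about one inch of soil in cups, then sprayed with aqueous acetone solution of test compound at about 0.125 to 0.50 kg per hectare. Plants grown under greenhouse conditions; visual rating on a 0-9 scale versus untreated control at 4-5 weeks.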

[4] = tested on: CYPERUS SEROTINUS, ROTTB.; test: Preemergence weed control under flooded paddy conditions, CYPSE (Flatsedge); conditions: preemergence, 3-4 weeks after treatment
How it was run: (§1)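 Visual 0-9 rating against untreated control, covering stand, vigor, malformation, size and chlorosis, scored three to four weeks post-treatment in a greenhouse. Application was into 1.5-3 cm flood water over silt loam sown at 0.5 cm. The 50/50 v/v aqueous/acetone doses were about 0.5, 0.25, 0.125 and 0.063 kg/ha.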

[5] = tested on: ORYZA SATIVA, L. TEBONNET; test: Rice tolerance to post-transplant applications under flooded paddy conditions, ORYSAT (Rice, Tebonnet); conditions: post-transplant rice, 3-4 weeks after treatment
How it was run: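 Rated on a visual 0–9 scale against untreated plants 3–4 weeks after application, rice (cv. Tebonnet) tolerance was tested by applying compounds (approx. 0.5–0.063 kg/ha, acetone/water 50/50) to flooded soil three days post-transplant, water kept 1.5–3 cm deep.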

[…], PRESL. = Preemergence weed control under flooded paddy conditions, MOOVA (Monochoria); conditions: preemergence, 3-4 weeks after treatment
How it was run: as §1

SAGITTARIA PYGMAEA, L. = test: Preemergence weed control under flooded paddy conditions, SAGPY (Arrowhead (Pygmaea)); conditions: preemergence, 3-4 weeks after treatment
How it was run: as §1

COC(=O)Cn1c(=O)n(C)c(=O)n(-c2cc(Oc3cc(Cl)c(Cl)cc3Cl)ccc2[N+](=O)[O-])c1=O [Compound 31, Methyl tetrahydro-3-methyl-5-[2-nitro-5-(2,4,5-trichlorophenoxy)phenyl]-2,4,6-trioxo-s-triazine-1(2H)-acetate]
ORYSAT herbicidal rating ([1]; Rate 0.125 kg/ha): 3.0
ORYSAT herbicidal rating ([1]; Rate 0.250 kg/ha): 3.0
ORYSAT herbicidal rating ([1]; Rate 0.500 kg/ha): 3.0
CHEAL rating (CHENOPODIUM ALBUM, L. [2]; Rate 0.125 kg/ha): 7.0
CHEAL rating (CHENOPODIUM ALBUM, L. [2]; Rate 0.250 kg/ha): 7.0
CHEAL rating (CHENOPODIUM ALBUM, L. [2]; Rate 0.500 kg/ha): 7.0
CHEAL herbicidal rating (CHENOPODIUM ALBUM, L. [3]; Rate 0.125 kg/ha): 9.0
CHEAL herbicidal rating (CHENOPODIUM ALBUM, L. [3]; Rate 0.250 kg/ha): 9.0
CHEAL herbicidal rating (CHENOPODIUM ALBUM, L. [3]; Rate 0.500 kg/ha): 9.0
Herbicidal effect rating, CYPSE ([4]; 0.063 kg/ha): 0.0
Herbicidal effect rating, CYPSE ([4]; 0.125 kg/ha): 0.0
Herbicidal effect rating, CYPSE ([4]; 0.250 kg/ha): 0.0
Herbicidal effect rating, CYPSE ([4]; 0.500 kg/ha): 0.0
Herbicidal effect rating, ORYSAT ([5]; 0.063 kg/ha): 0.0
Herbicidal effect rating, ORYSAT ([5]; 0.125 kg/ha): 0.0
Herbicidal effect rating, ORYSAT ([5]; 0.250 kg/ha): 1.0
Herbicidal effect rating, ORYSAT ([5]; 0.500 kg/ha): 2.0
Herbicidal effect rating, MOOVA ([…], PRESL.; 0.063 kg/ha): 0.0
Herbicidal effect rating, MOOVA ([…], PRESL.; 0.125 kg/ha): 0.0
Herbicidal effect rating, SAGPY (SAGITTARIA PYGMAEA, L.; 0.063 kg/ha): 0.0
Herbicidal effect rating, SAGPY (SAGITTARIA PYGMAEA, L.; 0.125 kg/ha): 0.0
Herbicidal effect rating, SAGPY (SAGITTARIA PYGMAEA, L.; 0.250 kg/ha): 0.0
Herbicidal effect rating, SAGPY (SAGITTARIA PYGMAEA, L.; 0.500 kg/ha): 0.0
